Experiments:
Chlamydia Pneumoniae = settings: reported; cited from earlier work
[1] = tested on: cervical/lumbosacral disc disease; experiment: Clinical injection/arthroscopic application of azithromycin with liposome in disc disease; type: in vivo, human; settings: two occasions, applied with a liposome and another anti-inflammatory at surgical arthroscopy of the intervertebral disc
Source text: The therapy of the present invention was also observed to be effective in clinical treatment of cervical/lumbosacral disc disease.

phospholipase A2 = settings: VanBebeke et al, 1994; cited from earlier work
[2] = tested on: severe acute lower back pain; settings: short-term oral treatment; effect not seen three or so days after onset; cited from earlier work

## Cc1c(F)c(N2CCNC(C)C2)cc2c1c(=O)c(C(=O)O)cn2C1CC1 (centres unmarked) [Grepafloxacin]
Chlamydia Pneumoniae
  potency against Chlamydia Pneumoniae: good potency

## CC[C@H]1OC(=O)[C@H](C)[C@@H](O[C@H]2C[C@@](C)(OC)[C@@H](O)[C@H](C)O2)[C@H](C)[C@@H](O[C@@H]2O[C@H](C)C[C@H](N(C)C)[C@H]2O)[C@](C)(O)C[C@@H](C)CN(C)[C@H](C)[C@@H](O)[C@]1(C)O [azithromycin, azithromycin dihydrate]
[1]
  relief of the patients' severe pain: good and immediate relief
Phospholipase A2
  effect on neurotoxic phospholipase A2: direct effect in mitigating the effects
[2]
  response of severe acute lower back pain: respond dramatically

## CO[C@H]1/C=C/O[C@@]2(C)Oc3c(C)c(O)c4c(O)c(c(/C=N/N5CCN(C)CC5)c(O)c4c3C2=O)NC(=O)/C(C)=C\C=C\[C@H](C)[C@H](O)[C@@H](C)[C@@H](O)[C@@H](C)[C@H](OC(C)=O)[C@@H]1C [rifanpin]
Chlamydia Pneumoniae
  potency against Chlamydia Pneumoniae: good potency

— patent publication US6914051B1, “Penetrating antibiotic gel for soft tissue diseases” (priority 2000, dated 2005)
